This note sets out measurements from patent US9127021B2, “Hepatitis C virus inhibitors” (priority 2010, dated 2015).

Like-named read-outs stand apart in the source and are kept apart here.

The test system of one experiment is HCV 1b genotype replicon. In words: HCV genotype 1b replicon assay (qRT-PCR or luciferase). The class given is cell-based. Particulars: Hepatitis C virus. An excerpt:
HCV replicon cell lines (kindly provided by R. Bartenschlager) isolated from colonies as described by Lohman et al. (Lohman et al. (1999) Science 285: 110-113, expressly incorporated by reference in its entirety) and used for all experiments. The HCV replicon has the nucleic acid sequence set forth in EMBL Accession No.: AJ242651, the coding sequence of which is from nucleotides 1801 to 8406.
The coding sequence of the published HCV replicon was synthesized and subsequently assembled in a modified plasmid pBR322 (Promega, Madison, Wis.) using standard molecular biology techniques. […]
EC50 values of single agent compounds were determined by HCV RNA detection using quantitative RT-PCR, according to the manufacturer's instructions, with a TAQMAN® One-Step RT-PCR Master Mix Reagents Kit (Cat#AB 4309169, Applied Biosystems) on an ABI Model 7500 thermocycler. EC50 values of combinations are similarly determined by HCV RNA detection using quantitative RT-PCR. The TAQMAN primers to use for detecting and quantifying HCV RNA obtained from Integrated DNA Technologies. HCV RNA is normalized to GAPDH RNA levels in drug-treated cells, which is detected and quantified using the Human GAPDH Endogenous Control Mix (Applied Biosystems, AB 4310884E). […] Chemical agent cytotoxicity is evaluated using an MTS assay according to the manufacturer's directions (Promega). […]

In the next experiment the test system is HCV 1a genotype replicon. In words: HCV genotype 1a replicon assay (qRT-PCR or luciferase). The following applies: Hepatitis C virus. It is filed as cell-based. A general note: Replicon systems follow genome replication, usually without infectious particles.

The EC50 is the concentration needed to bring the measured effect to its halfway point. In the case of `COC(=O)N[C@H]1CCCCOCc2cc(-c3ccc4cc(-c5c[nH]c([C@@H]6CCCN6C(=O)[C@@H](NC(=O)OC)C(C)C)n5)ccc4c3)ccc2NC(=O)[C@@H]2CCCN2C1=O` [Compound 350], the figures for the concentration giving a half-maximal response (EC50) with HCV 1b genotype replicon (read-out: 1b EC50) and in the experiment on HCV 1b genotype replicon (read-out: Range (EC50 range against HCV 1b)) were 0.05 nM and < 0.1 nM, respectively.

As to `COC(=O)N[C@H](C(=O)N1CCC[C@H]1c1nc(-c2ccc(-c3ccc4c(c3)COCCCCO[C@H](C)[C@H](NC(=O)OC)C(=O)N3CCC[C@H]3c3nc-4c[nH]3)cc2)c[nH]1)C(C)C` [Compound 346], the figures for the EC50 in the experiment with HCV 1a genotype replicon (read-out: 1a EC50) and in the experiment on HCV 1a genotype replicon (read-out: Range (EC50 range against HCV 1a)) were 2.4 nM and > 1 nM, respectively.
